What all share (experiment): NanoBRET CELLinib128
Common to all, as to assay type: binding
(In BRET a luciferase serves as donor, and the signal depends on an acceptor being close.)

The target in assay [1] is T1, MYLK3 (Homo sapiens, UniProt Q32MK0).
T1 construct: Full-length kinase ORF (Promega, Madison, WI, USA) cloned in frame with a NanoLuc-vector was transfected into HEK293T cells; host or cells: HEK293T
As to conditions: 100% no effect, 0% complete tracer displacement, read-out: Tracer bound. Here is the method: (§1) To get an impression about the binding strength of the PROTAC MA191 and the reference inhibitor MA68 to other kinases besides FLT3-ITD the binding on a kinase panel of further 128 representative protein kinases at 1 μM concentration was tested using the NanoBRET^TM cellular target engagement assay (CELLinib128 assay, CELLinib GmbH, Frankfurt, Germany). […] In none of the 128 kinases MA191 was able to displace the tracer (inhibitor) used by more than 50%, Table S1, Supplementary Information).
(§2) The CELLinib128 assay was performed by CELLinib GmbH, Frankfurt (Germany) as described previously. In brief: Full-length kinase ORF (Promega, Madison, WI, USA) cloned in frame with a NanoLuc-vector was transfected into HEK293T cells in Opti-MEM without phenol red (Life Technologies, Carlsbad, CA, USA) at a density of 2 × 10^5 cells/mL using FuGENE HD (Promega, E2312) and proteins were allowed to express for 20 h. For CDKs, where indicated below, an excess of an activator without an NLuc-fusion was cotransfected. […] The system was allowed to equilibrate at 37 °C for 2 h and 5% CO2 prior to BRET measurements. For PKCs, a chemical activator PMA was added in a final concentration of 1 µM was added together with test compounds and tracers (Promega, V1171). To measure BRET, NanoBRET^TM NanoGlo substrate + extracellular NanoLuc inhibitor (Promega, N2160) were added as per the manufacturer’s protocol, and filtered luminescence was measured (450 nm BP filter (donor) and 610 nm LP filter (acceptor)). For the 1-shot test compounds, data were normalized to the tracer control and the background control or control compound plateau and an average and SD were calculated. […] For the control compounds competitive displacement data were normalized to the tracer Ctrl and the background Ctrl and then plotted and fitted using GraphPad Prism 10 software using a normalized 3-parameter curve fit with the following equation: Y = 100/(1 + 10^X−LogIC50).

Assay [2] deals with T2, NEK3 (Homo sapiens, UniProt P51956).
T2 construct: Full-length kinase ORF (Promega, Madison, WI, USA) cloned in frame with a NanoLuc-vector was transfected into HEK293T cells; host or cells: HEK293T
As to conditions: 100% no effect, 0% complete tracer displacement, read-out: Tracer bound. Here is the method:
as §1, §2

Assay [3] deals with T3, PRKAA1 (Homo sapiens, UniProt Q13131).
T3 construct: Full-length kinase ORF (Promega, Madison, WI, USA) cloned in frame with a NanoLuc-vector was transfected into HEK293T cells; host or cells: HEK293T
The conditions noted are these: 100% no effect, 0% complete tracer displacement, read-out: Tracer bound. Here is the method: as §1, §2

For assay [4], the target named is T4, PRKCQ-PMA (Homo sapiens, UniProt Q04759).
T4 construct: Full-length kinase ORF (Promega, Madison, WI, USA) cloned in frame with a NanoLuc-vector was transfected into HEK293T cells; host or cells: HEK293T
The conditions noted are these: 100% no effect, 0% complete tracer displacement, read-out: Tracer bound. Here is the method:
as §1, §2

The target of assay [5] is T5, RIOK2 (Homo sapiens, UniProt Q9BVS4).
T5 construct: Full-length kinase ORF (Promega, Madison, WI, USA) cloned in frame with a NanoLuc-vector was transfected into HEK293T cells; host or cells: HEK293T
The conditions noted are these: 100% no effect, 0% complete tracer displacement, read-out: Tracer bound. On the procedure: as §1, §2

Assay [6] addresses T6, RPS6KA1 (Homo sapiens, UniProt Q15418).
T6 construct: Full-length kinase ORF (Promega, Madison, WI, USA) cloned in frame with a NanoLuc-vector was transfected into HEK293T cells; host or cells: HEK293T
As to conditions: 100% no effect, 0% complete tracer displacement, read-out: Tracer bound. On the procedure: as §1, §2

In assay [7] the target is T7, RPS6KA3 (Homo sapiens, UniProt P51812).
T7 construct: Full-length kinase ORF (Promega, Madison, WI, USA) cloned in frame with a NanoLuc-vector was transfected into HEK293T cells; host or cells: HEK293T
The conditions noted are these: 100% no effect, 0% complete tracer displacement, read-out: Tracer bound. On the procedure: as §1, §2

In assay [8] the target is T8, SIK3 (Homo sapiens, UniProt Q9Y2K2).
T8 construct: Full-length kinase ORF (Promega, Madison, WI, USA) cloned in frame with a NanoLuc-vector was transfected into HEK293T cells; host or cells: HEK293T
As to conditions: 1 µM; 100% no effect, 0% complete tracer displacement. Here is the method: as §1, §2

Assay [9] has as its target T9, SRMS (Homo sapiens, UniProt Q9H3Y6).
T9 construct: Full-length kinase ORF (Promega, Madison, WI, USA) cloned in frame with a NanoLuc-vector was transfected into HEK293T cells; host or cells: HEK293T
As to conditions: 100% no effect, 0% complete tracer displacement, read-out: Tracer bound. Here is the method:
as §1, §2

Assay [10] has as its target T10, STK4 (Homo sapiens, UniProt Q13043).
T10 construct: Full-length kinase ORF (Promega, Madison, WI, USA) cloned in frame with a NanoLuc-vector was transfected into HEK293T cells; host or cells: HEK293T
The conditions noted are these: 1 µM; 100% no effect, 0% complete tracer displacement. On the procedure:
as §1, §2

In assay [11] the target is T11, TNK2 (Homo sapiens, UniProt Q07912).
T11 construct: Full-length kinase ORF (Promega, Madison, WI, USA) cloned in frame with a NanoLuc-vector; host or cells: HEK293T
The conditions noted are these: 100% no effect, 0% complete tracer displacement, read-out: Tracer bound. On the procedure: as §1, §2

Assay [12] addresses T12, TNNI3K (Homo sapiens, UniProt Q59H18).
T12 construct: Full-length kinase ORF (Promega, Madison, WI, USA) cloned in frame with a NanoLuc-vector; host or cells: HEK293T
As to conditions: 100% no effect, 0% complete tracer displacement, read-out: Tracer bound. Here is the method: as §1, §2

The target of assay [13] is T13, ULK2 (Homo sapiens, UniProt Q8IYT8).
T13 construct: Full-length kinase ORF (Promega, Madison, WI, USA) cloned in frame with a NanoLuc-vector; host or cells: HEK293T
As to conditions: 100% no effect, 0% complete tracer displacement, read-out: Tracer bound. On the procedure:
as §1, §2

In assay [14] the target is T14, ULK3v1 (Homo sapiens, UniProt Q6PHR2).
T14 construct: Full-length kinase ORF (Promega, Madison, WI, USA) cloned in frame with a NanoLuc-vector; host or cells: HEK293T
The conditions noted are these: 1 µM; 100% no effect, 0% complete tracer displacement. Here is the method: as §1, §2

The target in assay [15] is T15, WEE2 (Homo sapiens, UniProt P0C1S8).
T15 construct: Full-length kinase ORF (Promega, Madison, WI, USA) cloned in frame with a NanoLuc-vector; host or cells: HEK293T
As to conditions: 100% no effect, 0% complete tracer displacement, read-out: Tracer bound. On the procedure: as §1, §2

T9 sequence (Q9H3Y6 whole entry): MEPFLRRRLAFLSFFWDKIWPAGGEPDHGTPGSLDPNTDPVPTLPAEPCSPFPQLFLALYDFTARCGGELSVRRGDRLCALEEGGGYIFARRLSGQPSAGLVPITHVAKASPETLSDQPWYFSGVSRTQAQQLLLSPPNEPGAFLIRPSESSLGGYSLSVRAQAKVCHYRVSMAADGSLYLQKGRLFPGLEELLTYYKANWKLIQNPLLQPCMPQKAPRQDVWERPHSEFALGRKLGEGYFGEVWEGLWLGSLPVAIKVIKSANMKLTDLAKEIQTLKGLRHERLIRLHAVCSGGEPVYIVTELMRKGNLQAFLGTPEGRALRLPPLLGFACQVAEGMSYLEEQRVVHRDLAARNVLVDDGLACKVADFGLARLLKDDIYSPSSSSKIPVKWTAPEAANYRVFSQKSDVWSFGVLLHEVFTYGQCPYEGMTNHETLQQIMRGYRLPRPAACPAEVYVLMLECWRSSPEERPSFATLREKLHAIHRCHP
T1 sequence (Q32MK0 whole entry): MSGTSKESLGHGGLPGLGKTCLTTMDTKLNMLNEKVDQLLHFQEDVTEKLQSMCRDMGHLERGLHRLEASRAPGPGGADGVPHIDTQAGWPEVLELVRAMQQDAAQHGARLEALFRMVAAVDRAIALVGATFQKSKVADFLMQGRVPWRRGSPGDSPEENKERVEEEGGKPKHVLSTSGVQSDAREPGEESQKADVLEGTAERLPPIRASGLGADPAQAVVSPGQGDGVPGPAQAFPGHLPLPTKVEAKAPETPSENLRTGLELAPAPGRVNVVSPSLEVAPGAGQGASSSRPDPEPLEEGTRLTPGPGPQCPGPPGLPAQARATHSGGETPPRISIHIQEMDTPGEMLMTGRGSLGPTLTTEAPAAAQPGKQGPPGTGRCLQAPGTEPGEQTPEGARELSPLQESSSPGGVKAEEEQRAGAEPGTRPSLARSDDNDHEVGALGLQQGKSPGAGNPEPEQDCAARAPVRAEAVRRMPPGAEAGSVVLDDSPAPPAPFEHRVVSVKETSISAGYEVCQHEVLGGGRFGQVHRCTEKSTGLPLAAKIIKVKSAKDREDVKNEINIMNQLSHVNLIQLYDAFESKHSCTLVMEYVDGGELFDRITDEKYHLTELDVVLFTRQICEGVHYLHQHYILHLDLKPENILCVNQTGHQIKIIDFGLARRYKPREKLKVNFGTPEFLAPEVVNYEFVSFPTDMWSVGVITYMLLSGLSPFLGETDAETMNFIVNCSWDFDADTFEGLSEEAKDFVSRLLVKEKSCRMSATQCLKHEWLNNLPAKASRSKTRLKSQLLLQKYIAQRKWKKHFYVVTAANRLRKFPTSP
T11 sequence (Q07912 whole entry): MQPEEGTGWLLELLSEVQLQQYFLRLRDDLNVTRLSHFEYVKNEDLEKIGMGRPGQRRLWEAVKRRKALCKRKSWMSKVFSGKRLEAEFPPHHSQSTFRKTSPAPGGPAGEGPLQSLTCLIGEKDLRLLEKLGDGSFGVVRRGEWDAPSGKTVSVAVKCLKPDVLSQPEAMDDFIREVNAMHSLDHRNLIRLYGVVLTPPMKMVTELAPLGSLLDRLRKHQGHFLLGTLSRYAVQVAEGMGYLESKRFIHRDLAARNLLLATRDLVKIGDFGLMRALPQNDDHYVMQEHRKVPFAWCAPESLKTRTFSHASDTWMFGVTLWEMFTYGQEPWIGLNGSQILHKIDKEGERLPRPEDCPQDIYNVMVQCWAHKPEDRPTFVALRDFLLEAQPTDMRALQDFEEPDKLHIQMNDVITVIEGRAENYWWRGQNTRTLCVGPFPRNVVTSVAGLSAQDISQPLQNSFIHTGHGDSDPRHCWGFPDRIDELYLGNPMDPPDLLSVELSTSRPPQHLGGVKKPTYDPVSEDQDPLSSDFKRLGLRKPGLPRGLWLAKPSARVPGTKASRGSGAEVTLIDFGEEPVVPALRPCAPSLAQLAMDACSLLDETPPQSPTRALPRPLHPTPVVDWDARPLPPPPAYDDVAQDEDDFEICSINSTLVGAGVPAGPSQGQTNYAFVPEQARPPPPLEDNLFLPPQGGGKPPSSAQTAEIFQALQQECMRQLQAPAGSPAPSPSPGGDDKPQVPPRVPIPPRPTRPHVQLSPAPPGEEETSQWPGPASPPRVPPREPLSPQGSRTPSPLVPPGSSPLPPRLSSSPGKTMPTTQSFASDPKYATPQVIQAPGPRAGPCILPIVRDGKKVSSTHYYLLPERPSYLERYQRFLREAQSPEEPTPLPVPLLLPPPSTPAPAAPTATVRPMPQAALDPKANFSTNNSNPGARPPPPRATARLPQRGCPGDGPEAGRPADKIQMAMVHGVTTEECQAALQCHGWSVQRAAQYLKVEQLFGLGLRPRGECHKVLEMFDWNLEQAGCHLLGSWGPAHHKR
T10 sequence (Q13043 whole entry): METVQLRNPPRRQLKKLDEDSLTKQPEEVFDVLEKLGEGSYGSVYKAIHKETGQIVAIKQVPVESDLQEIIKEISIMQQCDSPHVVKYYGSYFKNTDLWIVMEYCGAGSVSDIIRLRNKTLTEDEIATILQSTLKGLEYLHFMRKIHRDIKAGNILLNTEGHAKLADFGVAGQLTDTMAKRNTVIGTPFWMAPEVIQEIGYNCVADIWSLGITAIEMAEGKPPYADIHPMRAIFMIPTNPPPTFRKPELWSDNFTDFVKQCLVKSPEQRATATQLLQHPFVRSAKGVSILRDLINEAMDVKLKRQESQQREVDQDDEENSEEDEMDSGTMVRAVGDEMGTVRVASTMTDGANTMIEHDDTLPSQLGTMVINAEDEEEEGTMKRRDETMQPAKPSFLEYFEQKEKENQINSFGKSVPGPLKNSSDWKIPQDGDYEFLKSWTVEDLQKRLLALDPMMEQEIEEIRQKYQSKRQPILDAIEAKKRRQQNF
T15 sequence (P0C1S8 whole entry): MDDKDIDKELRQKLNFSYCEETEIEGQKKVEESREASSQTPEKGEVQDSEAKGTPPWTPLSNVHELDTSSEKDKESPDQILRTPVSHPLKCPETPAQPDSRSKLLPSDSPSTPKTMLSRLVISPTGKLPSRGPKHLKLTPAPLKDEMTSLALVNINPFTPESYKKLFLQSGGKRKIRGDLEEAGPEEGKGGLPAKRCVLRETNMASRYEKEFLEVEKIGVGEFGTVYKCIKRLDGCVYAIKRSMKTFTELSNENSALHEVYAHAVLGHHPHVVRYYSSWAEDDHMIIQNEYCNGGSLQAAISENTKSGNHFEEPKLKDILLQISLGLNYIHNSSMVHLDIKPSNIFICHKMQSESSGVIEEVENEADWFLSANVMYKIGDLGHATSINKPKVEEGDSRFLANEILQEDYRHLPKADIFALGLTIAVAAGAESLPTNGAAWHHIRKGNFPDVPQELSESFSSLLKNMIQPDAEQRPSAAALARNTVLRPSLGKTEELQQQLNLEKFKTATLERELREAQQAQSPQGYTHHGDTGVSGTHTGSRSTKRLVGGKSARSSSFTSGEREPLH
T6 sequence (Q15418 whole entry): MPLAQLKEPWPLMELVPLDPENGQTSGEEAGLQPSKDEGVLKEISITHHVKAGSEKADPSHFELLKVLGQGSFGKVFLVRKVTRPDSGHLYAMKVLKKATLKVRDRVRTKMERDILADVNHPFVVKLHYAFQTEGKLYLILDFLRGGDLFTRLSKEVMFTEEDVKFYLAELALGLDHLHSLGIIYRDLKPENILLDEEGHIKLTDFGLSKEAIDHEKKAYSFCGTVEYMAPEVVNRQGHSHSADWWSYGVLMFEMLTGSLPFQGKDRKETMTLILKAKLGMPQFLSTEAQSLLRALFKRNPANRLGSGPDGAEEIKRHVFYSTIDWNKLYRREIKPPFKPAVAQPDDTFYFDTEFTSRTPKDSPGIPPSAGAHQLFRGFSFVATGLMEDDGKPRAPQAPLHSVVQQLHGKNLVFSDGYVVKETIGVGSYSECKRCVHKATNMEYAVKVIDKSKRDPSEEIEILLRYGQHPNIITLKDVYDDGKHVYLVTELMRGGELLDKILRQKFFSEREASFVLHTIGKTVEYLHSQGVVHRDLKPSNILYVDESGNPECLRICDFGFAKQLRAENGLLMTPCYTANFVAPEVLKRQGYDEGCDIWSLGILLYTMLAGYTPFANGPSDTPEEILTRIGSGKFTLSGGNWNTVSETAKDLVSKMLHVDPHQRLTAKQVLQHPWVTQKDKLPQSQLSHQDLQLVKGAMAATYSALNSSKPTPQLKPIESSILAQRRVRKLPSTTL
T2 sequence (P51956 whole entry): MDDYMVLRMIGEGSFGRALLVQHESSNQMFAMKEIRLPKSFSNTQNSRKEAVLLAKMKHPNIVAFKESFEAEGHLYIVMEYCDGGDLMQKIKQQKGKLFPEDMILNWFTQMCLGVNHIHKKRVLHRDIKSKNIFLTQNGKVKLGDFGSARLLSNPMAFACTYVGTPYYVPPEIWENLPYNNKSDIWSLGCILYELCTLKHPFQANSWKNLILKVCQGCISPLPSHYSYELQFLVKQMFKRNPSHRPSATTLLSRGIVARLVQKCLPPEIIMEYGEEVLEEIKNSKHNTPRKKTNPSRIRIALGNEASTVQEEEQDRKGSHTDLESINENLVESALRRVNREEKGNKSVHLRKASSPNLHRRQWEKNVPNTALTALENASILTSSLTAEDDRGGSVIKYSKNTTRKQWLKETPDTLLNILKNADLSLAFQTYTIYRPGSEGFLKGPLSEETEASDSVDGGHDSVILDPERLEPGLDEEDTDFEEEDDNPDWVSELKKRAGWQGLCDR

In the case of `Cc1ncsc1-c1ccc([C@H](C)NC(=O)[C@@H]2C[C@@H](O)CN2C(=O)[C@@H](NC(=O)[C@H]2CC[C@H](C(=O)N3CCN(CCNC(=O)c4cc(Oc5ccc(NC(=O)Nc6cc(C(C)(C)C)on6)cc5)ccn4)CC3)CC2)C(C)(C)C)cc1` [MA191, 4-(4-(3-(5-(tert-Butyl)isoxazol-3-yl)ureido)phenoxy)-N-(2-(4-(trans-4-(((S)-1-((2S,4R)-4-hydroxy-2-(((S)-1-(4-(4-methylthiazol-5-yl)phenyl)ethyl)carbamoyl)pyrrolidin-1-yl)-3,3-dimethyl-1-oxobutan-2-yl)carbamoyl)cyclohexanecarbonyl)piperazin-1-yl)ethyl)picolinamide], the remaining activity at 1 µM in assay [1] came out at 108%; in assay [2], 100%; in assay [3], 110%; in assay [4], 104%; in assay [5], 115%; in assay [6] it was 110%. The remaining activity at 1 µM in [7] was 120%; in assay [9] it was 94.4%; in assay [11], 118%; in assay [12], 83.2%; in assay [13], 98.6%; in [15], 99.3%. Further, the Tracer bound is reported as 106.3% in [8], 102.0% in [10] and 107.8% in assay [14].

Values taken from article PMC13210772, “Dual FLT3/MAPK14 Proteolysis-Targeting Chimera (PROTAC) Induces Potent Acute Myeloid Leukemia Cell Death” (Pharmaceuticals, 2026).
